In patent US20180071242A1, “SUBSTITUTED ACYLANILIDES AND METHODS OF USE THEREOF” (University of Tennessee Research Foundation, priority 2006, published 2018):

Experiments:
PR = molecular target: T1, PR (Rattus norvegicus, UniProt Q63449); experiment: Transient transfection luciferase transactivation assay in HEK-293 cells; type: cell-based; details: 1 nM
T1 construct: expressed in transfected cells; host or cells: HEK-293
T1 sequence (Q63449 1-923): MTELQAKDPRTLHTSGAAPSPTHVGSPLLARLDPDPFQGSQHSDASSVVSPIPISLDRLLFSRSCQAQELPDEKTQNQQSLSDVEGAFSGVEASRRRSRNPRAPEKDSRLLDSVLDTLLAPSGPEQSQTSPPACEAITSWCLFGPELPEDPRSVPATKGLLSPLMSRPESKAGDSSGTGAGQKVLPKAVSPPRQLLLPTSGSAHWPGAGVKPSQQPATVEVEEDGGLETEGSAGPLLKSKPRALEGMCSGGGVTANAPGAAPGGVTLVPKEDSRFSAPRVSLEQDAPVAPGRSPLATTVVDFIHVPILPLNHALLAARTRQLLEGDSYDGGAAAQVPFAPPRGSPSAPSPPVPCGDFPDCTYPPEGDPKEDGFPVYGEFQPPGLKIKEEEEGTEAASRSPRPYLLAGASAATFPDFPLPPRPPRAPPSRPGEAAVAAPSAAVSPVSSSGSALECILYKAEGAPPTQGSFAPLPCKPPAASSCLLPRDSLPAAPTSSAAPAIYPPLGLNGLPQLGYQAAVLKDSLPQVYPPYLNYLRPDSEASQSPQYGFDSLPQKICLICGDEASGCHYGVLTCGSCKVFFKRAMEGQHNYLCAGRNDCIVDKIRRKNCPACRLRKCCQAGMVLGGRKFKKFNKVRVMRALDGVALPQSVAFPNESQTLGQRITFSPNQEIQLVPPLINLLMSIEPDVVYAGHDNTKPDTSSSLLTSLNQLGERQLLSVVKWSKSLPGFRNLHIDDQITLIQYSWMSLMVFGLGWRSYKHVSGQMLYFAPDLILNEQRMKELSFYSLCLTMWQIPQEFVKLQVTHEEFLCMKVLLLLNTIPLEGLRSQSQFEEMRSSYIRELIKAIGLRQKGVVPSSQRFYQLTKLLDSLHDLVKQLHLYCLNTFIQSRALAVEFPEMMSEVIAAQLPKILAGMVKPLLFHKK

[1] = tested on: orchidectomized (ORX) male Sprague-Dawley rats; experiment: Anabolic and androgenic activity in castrated (ORX) male rats; type: in vivo, rat; details: maximally stimulated
Procedure: Anabolic and androgenic efficacy of compound of formula (I) administered by daily oral gavage were tested. The S-isomer of compound (I) [S-(I)] was synthesized and tested as described herein.
The test article for this study was weighed and dissolved in 10% DMSO (Fischer) diluted with PEG 300 (Acros Organics, NJ) for preparation of the appropriate dosage concentrations. The animals were housed in groups of 2 to 3 animals per cage. Animals were randomly assigned to one of seven groups consisting of 4 to 5 animals per group. Control groups (intact and ORX) were administered vehicle daily. S-(I) was administered via oral gavage at doses of 0.01, 0.03, 0.1, 0.3, 0.75, and 1 mg/day to both intact and ORX groups. Where appropriate, animals were castrated on day one of the study. Treatment with S-(I) began nine days post ORX and was administered daily via oral gavage for fourteen days.
The animals were sacrificed under anesthesia (ketamine/xyalzine, 87:13 mg/kg) and body weights were recorded. In addition, ventral prostate, seminal vesicles, and levator ani muscle were removed, individually weighed, normalized to body weight, and expressed as a percentage of intact control. Student's T-test was used to compare individual dose groups to the intact control group. Significance was defined a priori as a P-value <0.05. Ventral prostate and seminal vesicle weights were evaluated as a measure of androgenic activity, whereas levator ani muscle weight was evaluated as a measure of anabolic activity. Blood was collected from the abdominal aorta, centrifuged, and sera were frozen at −80° C. prior to determination of serum hormone levels. Serum luteinizing hormone (LH) and follicle stimulating hormone (FSH) concentrations were determined.

[2] = tested on: DMD (−/−) UTRN (−/−) mice; experiment: Double knockout mouse model of Duchenne muscular dystrophy; details: 10 mg/kg/day, data cumulative across the SARM groups
CYP2C9 = molecular target: T2, CYP2C9 (Homo sapiens, UniProt P11712); experiment: CYP inhibition screening, recombinant enzyme (fluorescent-based) assay; type: in vitro ADME; details: human, 30 min
T2 construct: purchased Gentest, BD Biosciences

MR = molecular target: T3, MR (Rattus norvegicus, UniProt P22199); experiment: Transient transfection luciferase transactivation assay in HEK-293 cells; type: cell-based; details: 1 nM
T3 construct: expressed in transfected cells; host or cells: HEK-293
T3 sequence (P22199 1-981): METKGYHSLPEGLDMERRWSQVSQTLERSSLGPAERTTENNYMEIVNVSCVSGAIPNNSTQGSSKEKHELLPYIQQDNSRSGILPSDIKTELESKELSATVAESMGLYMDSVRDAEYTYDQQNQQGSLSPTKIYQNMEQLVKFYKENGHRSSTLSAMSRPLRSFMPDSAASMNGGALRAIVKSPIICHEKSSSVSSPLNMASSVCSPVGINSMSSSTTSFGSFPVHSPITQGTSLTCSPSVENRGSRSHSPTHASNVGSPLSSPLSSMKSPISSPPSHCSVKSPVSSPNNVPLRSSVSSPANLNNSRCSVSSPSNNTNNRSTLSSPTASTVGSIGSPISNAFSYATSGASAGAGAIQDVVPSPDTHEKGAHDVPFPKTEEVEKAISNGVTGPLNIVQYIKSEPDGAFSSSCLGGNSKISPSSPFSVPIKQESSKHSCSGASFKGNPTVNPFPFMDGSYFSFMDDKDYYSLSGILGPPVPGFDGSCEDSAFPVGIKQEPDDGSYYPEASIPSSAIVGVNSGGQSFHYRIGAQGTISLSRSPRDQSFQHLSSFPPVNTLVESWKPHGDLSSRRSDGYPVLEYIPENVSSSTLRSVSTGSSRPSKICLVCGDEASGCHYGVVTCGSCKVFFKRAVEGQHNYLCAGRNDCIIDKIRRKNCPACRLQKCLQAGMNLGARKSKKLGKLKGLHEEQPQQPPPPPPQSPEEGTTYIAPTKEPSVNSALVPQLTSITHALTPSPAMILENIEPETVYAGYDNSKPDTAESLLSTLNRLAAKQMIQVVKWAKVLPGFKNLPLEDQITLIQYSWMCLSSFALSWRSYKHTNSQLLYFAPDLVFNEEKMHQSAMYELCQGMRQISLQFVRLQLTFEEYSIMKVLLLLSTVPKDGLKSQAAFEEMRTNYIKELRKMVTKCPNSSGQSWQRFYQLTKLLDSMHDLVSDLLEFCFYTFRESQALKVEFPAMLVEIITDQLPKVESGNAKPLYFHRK

GR = molecular target: T4, GR (Rattus norvegicus, UniProt P06536); experiment: as above; type: cell-based; details: 1 nM
T4 construct: expressed in transfected cells; host or cells: HEK-293
T4 sequence (P06536 1-795): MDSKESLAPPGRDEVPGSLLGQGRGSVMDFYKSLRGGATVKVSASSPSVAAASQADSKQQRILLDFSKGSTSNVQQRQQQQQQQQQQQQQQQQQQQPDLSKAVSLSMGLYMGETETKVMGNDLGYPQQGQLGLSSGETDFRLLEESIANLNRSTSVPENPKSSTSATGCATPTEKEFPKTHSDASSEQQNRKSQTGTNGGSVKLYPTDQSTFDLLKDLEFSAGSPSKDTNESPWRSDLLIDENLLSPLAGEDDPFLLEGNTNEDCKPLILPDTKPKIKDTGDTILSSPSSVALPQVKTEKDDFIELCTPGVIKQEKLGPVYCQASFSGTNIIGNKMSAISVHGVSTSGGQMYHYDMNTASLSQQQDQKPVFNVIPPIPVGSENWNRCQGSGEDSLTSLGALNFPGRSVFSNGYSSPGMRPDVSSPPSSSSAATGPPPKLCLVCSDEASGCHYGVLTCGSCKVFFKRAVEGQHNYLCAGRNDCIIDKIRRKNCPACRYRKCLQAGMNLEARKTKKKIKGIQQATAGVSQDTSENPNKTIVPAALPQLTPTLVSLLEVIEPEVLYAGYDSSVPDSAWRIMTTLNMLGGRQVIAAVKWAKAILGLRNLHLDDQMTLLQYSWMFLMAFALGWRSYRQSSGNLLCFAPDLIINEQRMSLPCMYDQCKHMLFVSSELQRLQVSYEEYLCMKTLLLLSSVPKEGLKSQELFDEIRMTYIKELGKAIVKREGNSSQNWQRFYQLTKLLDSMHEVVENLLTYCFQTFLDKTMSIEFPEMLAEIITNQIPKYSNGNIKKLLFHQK

T2 sequence (P11712 whole entry): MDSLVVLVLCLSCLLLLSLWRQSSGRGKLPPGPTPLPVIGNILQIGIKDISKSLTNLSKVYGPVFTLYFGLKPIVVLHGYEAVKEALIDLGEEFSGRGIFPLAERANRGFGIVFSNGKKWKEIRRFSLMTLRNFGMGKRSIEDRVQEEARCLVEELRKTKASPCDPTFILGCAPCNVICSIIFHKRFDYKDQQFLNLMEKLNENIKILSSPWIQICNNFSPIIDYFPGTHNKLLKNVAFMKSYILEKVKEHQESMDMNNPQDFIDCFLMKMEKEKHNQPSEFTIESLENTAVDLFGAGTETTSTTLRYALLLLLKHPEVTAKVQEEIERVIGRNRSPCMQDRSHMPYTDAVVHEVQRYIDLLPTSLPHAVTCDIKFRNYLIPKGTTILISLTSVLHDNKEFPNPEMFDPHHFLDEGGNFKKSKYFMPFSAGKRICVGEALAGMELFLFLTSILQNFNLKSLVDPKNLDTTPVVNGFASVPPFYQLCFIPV

## CC#C[C@]1(O)CC[C@H]2[C@@H]3CCC4=CC(=O)CCC4=C3[C@@H](c3ccc(N(C)C)cc3)C[C@@]21C [RU486, reference compound]
PR
  Inhibition of PR activity, antagonist mode (in words): completely inhibited

## CC(=O)Nc1ccc(OC[C@](C)(O)C(=O)Nc2ccc([N+](=O)[O-])c(C(F)(F)F)c2)cc1 [S-4, S-3-(4-acetylaminophenoxy)-2-hydroxy-2-methyl-N-(4-nitro-3-trifluoromethylphenyl)propanamide, reference compound]
[1]
  Maximal stimulation of levator ani muscle weight: 101%

## C[C@](O)(COc1ccc(C#N)cc1)C(=O)Nc1ccc(C#N)c(C(F)(F)F)c1 [S-(IV)]
[2]
  Ability to be ambulatory (in words): enhanced the ability of these mice to be ambulatory
  Deterioration of body weight (in words): delayed the deterioration
  Deterioration of grip strength (in words): delayed the deterioration
  Deterioration of lean mass (in words): delayed the deterioration

## C[C@](O)(COc1ccc(C#N)c(F)c1)C(=O)Nc1ccc(C#N)c(C(F)(F)F)c1 [S-(V)]
[2]
  Ability to be ambulatory (in words): enhanced the ability of these mice to be ambulatory
  Deterioration of body weight (in words): delayed the deterioration
  Deterioration of grip strength (in words): delayed the deterioration
  Deterioration of lean mass (in words): delayed the deterioration

## Nc1ccc(S(=O)(=O)Nc2ccnn2-c2ccccc2)cc1 [Sulfaphenazole, reference compound]
CYP2C9
  Inhibition of CYP2C9 activity (in words): potently inhibited

## CCC(=O)O[C@H]1CC[C@H]2[C@@H]3CCC4=CC(=O)CC[C@]4(C)[C@H]3CC[C@]12C [Testosterone propionate, reference compound]
[1]
  Maximal stimulation of levator ani muscle weight: 104%

## C[C@]12CCC(=O)C=C1CC[C@@H]1[C@@H]2[C@@H](O)C[C@]2(C=O)[C@@H](C(=O)CO)CC[C@@H]12 [aldosterone, reference compound]
MR
  MR activity induced by known ligand: 60 fold

## C[C@@H]1C[C@H]2[C@@H]3CCC4=CC(=O)C=C[C@]4(C)[C@@]3(F)[C@@H](O)C[C@]2(C)[C@@]1(O)C(=O)CO [dexamethasone, reference compound]
GR
  GR activity induced by known ligand: 70 fold

## CC(=O)[C@H]1CC[C@H]2[C@@H]3CCC4=CC(=O)CC[C@]4(C)[C@H]3CC[C@]12C [progesterone, reference compound]
PR
  PR activity induced by known ligand: 23 fold
